Data: US20080145439A1, “NA[…] FORMULATIONS” (NEUROSYSTEC CORPORATION, priority 2006, published 2008)

Tests used:
Format in all cases: physicochemical
[1] = Binding (loss) of gacyclidine to silicone; conditions: room temperature, pH 6, 100 μM gacyclidine solution; depends on time and temperature of exposure
Text: Delivery of gacyclidine in such a manner presents numerous challenges, however. Various characteristics of gacyclidine are discussed in more detail below. […] Specifically, catheters, drug reservoirs, pumps, anti-bacterial filters and other components of drug delivery systems are typically fabricated from polymers approved for human implantation.

[2] = Water solubility of gacyclidine forms
Text: (§1) However, in polymeric containers or in the presence of excess precipitated drug, the apparent pKA is perturbed to lower values due to interaction of the basic form of the drug with polymeric surfaces or its own insoluble precipitate. In the conjugate acid form, gacyclidine is extremely water soluble. Solutions of greater than 1 molar (M) concentration can be prepared from the hydrochloride salt. However, solutions of the acid form of the drug are thermally unstable and subject to acid-catalyzed decomposition to give stoichiometric piperidine (1 mole per mole of drug lost) and multiple other organic products.

[3] = Apparent pKA of gacyclidine in aqueous solution
Text: as §1

[4] = Thermal decomposition / stability of gacyclidine in solution; conditions: for decomposition rate: 54° C.; for Time for 10% Loss: Ringer's Lactate

CC1CCCCC1(c1cccs1)N1CCCCC1 (centres unmarked) [Gacyclidine]
gacyclidine retained by silicone [1]: up to 60% | pH above which precipitation is observed ([2]; 0.1 M hydrochloride salt diluted into buffered aqueous solution to 1 mM): > 7 pH | temperature dependence of apparent pKA [3]: −0.016 ΔpKA/° C. | apparent pKA in glass vials higher than in polypropylene ([3]; 37° C., 1 mM gacyclidine): about 0.7 pH units | apparent pKA ([3]; room temperature, glass containers): 7.4 | apparent pKA (from residual gacyclidine in solution) ([3]; room temperature, 0.1 M hydrochloride salt diluted into buffered aqueous solution to 1 mM, glass or polypropylene vials): 6.7

C[C@H]1CCCC[C@@]1(c1cccs1)N1CCCCC1.Cl [Gacyclidine Hydrochloride Salt, Gacyclidine]
decomposition rate ([4]; 10 mM HCl): 0.52 day⁻¹ | Time for 10% Loss ([4]; 37° C., pH 5.5): 3.7 ± 0.1 days | Time for 10% Loss ([4]; 37° C., pH 6.0): 3.82 ± 0.03 days | Time for 10% Loss ([4]; 37° C., pH 7.4): 6.1 ± 0.4 days | Time for 10% Loss ([4]; 37° C., pH 7.4, listed as gacyclidine in the hydrochloride salt form): 6.1 days | time required for 10% loss ([4]; 37° C., slightly acidic conditions): 3.8 days | solubility in water (concentration of clear solution) [2]: greater than 1 M | solubility in water (concentration of clear solution) ([2]; listed as hydrochloride salt of gacyclidine): > 1000 mM

CC1CCCCC1(c1cccs1)N1CCCCC1 (centres unmarked) [basic form of gacyclidine, Gacyclidine]
decomposition rate ([4]; 1 mM NaOH): 0.0013 day⁻¹ | stability relative to the conjugate acid form ([4]; from decomposition rates at 54° C.): 200-400 times | solubility in water ([2]; above pH 9): < 0.002 mM
